Source: patent US7250442B2, “Dihydroindol-2-one derivatives as steroid hormone nuclear receptor modulators” (Eli Lilly and Company, priority 2003, dated 2007)

Biological target: T1, human MR (Homo sapiens, UniProt P08235)
T1 construct: The full length human MR gene is cloned from a human kidney or human brain cDNA library; made in house; host or cells: Sf9 insect cells (baculovirus, pAcHLT transfer vector)
T1 sequence (P08235 1-984): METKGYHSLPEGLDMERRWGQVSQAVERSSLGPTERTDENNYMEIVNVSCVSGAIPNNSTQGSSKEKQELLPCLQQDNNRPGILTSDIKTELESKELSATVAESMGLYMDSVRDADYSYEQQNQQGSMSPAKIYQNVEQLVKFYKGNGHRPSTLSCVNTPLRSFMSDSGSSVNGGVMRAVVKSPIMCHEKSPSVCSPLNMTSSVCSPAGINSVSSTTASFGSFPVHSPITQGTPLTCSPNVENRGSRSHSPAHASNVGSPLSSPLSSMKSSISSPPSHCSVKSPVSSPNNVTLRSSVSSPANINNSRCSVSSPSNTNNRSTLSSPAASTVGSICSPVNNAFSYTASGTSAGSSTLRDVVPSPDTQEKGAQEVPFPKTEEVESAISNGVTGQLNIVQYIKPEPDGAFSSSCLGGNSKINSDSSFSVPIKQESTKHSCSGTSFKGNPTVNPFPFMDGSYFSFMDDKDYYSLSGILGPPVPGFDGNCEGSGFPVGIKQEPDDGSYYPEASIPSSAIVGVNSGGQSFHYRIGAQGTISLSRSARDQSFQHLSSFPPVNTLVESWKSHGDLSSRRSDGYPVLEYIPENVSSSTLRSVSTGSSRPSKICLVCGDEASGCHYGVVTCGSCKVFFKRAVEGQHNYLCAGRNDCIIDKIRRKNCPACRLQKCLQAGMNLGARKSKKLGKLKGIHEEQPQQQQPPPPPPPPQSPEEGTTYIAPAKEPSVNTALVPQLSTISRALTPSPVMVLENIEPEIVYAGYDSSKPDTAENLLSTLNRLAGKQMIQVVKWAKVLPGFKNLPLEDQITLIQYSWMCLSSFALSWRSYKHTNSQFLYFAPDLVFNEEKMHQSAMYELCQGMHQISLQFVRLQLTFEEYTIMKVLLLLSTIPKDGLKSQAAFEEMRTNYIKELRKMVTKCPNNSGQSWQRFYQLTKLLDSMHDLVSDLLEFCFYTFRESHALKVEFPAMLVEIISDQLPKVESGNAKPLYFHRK
Test: Mineralocorticoid Receptor Binding Assay ([3H]-aldosterone displacement)
Conditions: full length human MR expressed in Sf9 cells, 0.5 nM [3H]-aldosterone
Method in brief: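 Full-length human MR expressed in Sf9 cells; lysate (20-25 μg protein) incubated with 0.5 nM [3H]-aldosterone and test compound in molybdate/Tris/phosphate/glycerol buffer pH 7.5, 16 h at 4 °C. Bound ligand measured by filtration and scintillation counting; IC50 converted to Ki via Cheng-Prusoff.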

In the case of `Cc1cc(C2(c3cc(C)c(O)c(C)c3)C(=O)N(c3ccccc3)c3ccccc32)cc(C)c1O` [Example 126, 3,3-Bis-(4-hydroxy-3,5-dimethyl-phenyl)-1-phenyl-1,3-dihydro-indol-2-one], the Ki is reported as no more than 500 nM.
`Cc1cc(C2(c3cc(C)c(O)c(C)c3)C(=O)N(c3cccc(C(F)(F)F)c3)c3ccccc32)cc(C)c1O` [Example 127, 3,3-Bis-(4-hydroxy-3,5-dimethyl-phenyl)-1-(3-trifluoromethyl-phenyl)-1,3-dihydro-indol-2-one] was tested, and the Ki was no more than 500 nM.
Work on `Cc1cc(C2(c3cc(C)c(O)c(C)c3)C(=O)N(c3ccccc3Cl)c3ccccc32)cc(C)c1O` [Example 129, 1-(2-Chloro-phenyl)-3,3-bis-(4-hydroxy-3,5-dimethyl-phenyl)-1,3-dihydro-indol-2-one] yielded a Ki of no more than 500 nM.
For `Cc1cc(C2(c3cc(C)c(O)c(C)c3)C(=O)N(c3cccc(F)c3)c3ccccc32)cc(C)c1O` [Example 130, 1-(3-Fluoro-phenyl)-3,3-bis-(4-hydroxy-3,5-dimethyl-phenyl)-1,3-dihydro-indol-2-one], the Ki was no more than 500 nM.
In the case of `Cc1cc(C2(c3cc(C)c(O)c(C)c3)C(=O)N(c3ccc(C(F)(F)F)cc3)c3ccccc32)cc(C)c1O` [Example 131, 3,3-Bis-(4-hydroxy-3,5-dimethyl-phenyl)-1-(4-trifluoromethyl-phenyl)-1,3-dihydro-indol-2-one], the Ki is reported as no more than 500 nM.
Work on `Cc1ccccc1N1C(=O)C(c2cc(C)c(O)c(C)c2)(c2cc(C)c(O)c(C)c2)c2ccccc21` [Example 132, 3,3-Bis-(4-hydroxy-3,5-dimethyl-phenyl)-1-o-tolyl-1,3-dihydro-indo 1-2-one] yielded a Ki of no more than 500 nM.
In the case of `Cc1cccc(N2C(=O)C(c3cc(C)c(O)c(C)c3)(c3cc(C)c(O)c(C)c3)c3ccccc32)c1` [Example 133, 3,3-Bis-(4-hydroxy-3,5-dimethyl-phenyl)-1-m-tolyl-1,3-dihydro-indol-2-one], the Ki is reported as no more than 500 nM.
Compound `Cc1cc(C2(c3cc(C)c(O)c(C)c3)C(=O)N(c3ccncc3)c3ccccc32)cc(C)c1O` [Example 136, 3,3-Bis-(4-hydroxy-3,5-dimethyl-phenyl)-1-pyridin-4-yl-1,3-dihydro-indol-2-one] has a Ki of no more than 500 nM.
`CCOc1cccc(N2C(=O)C(c3cc(C)c(O)c(C)c3)(c3cc(C)c(O)c(C)c3)c3ccccc32)c1` [Example 137, 1-(3-Ethoxy-phenyl)-3,3-bis-(4-hydroxy-3,5-dimethyl-phenyl)-1,3-dihydro-indol-2-one] was tested, and the Ki was no more than 500 nM.
`Cc1cc(C2(c3cc(C)c(O)c(C)c3)C(=O)N(c3cccc(C(C)C)c3)c3ccccc32)cc(C)c1O` [Example 138, 3,3-Bis-(4-hydroxy-3,5-dimethyl-phenyl)-1-(3-isopropyl-phenyl)-1,3-dihydro-indol-2-one] showed a Ki of no more than 500 nM.
`COc1ccc(N2C(=O)C(c3cc(C)c(O)c(C)c3)(c3cc(C)c(O)c(C)c3)c3ccccc32)cc1OC` [Example 140, 1-(3,4-Dimethoxy-phenyl)-3,3-bis-(4-hydroxy-3,5-dimethyl-phenyl)-1,3-dihydro-indol-2-one] gave a Ki of no more than 500 nM.
With `COC(=O)c1cccc(-c2noc(CN3C(=O)C(c4cc(C)c(O)c(C)c4)(c4cc(C)c(O)c(C)c4)c4ccccc43)n2)c1` [Example 141, 3-{5-[3,3-Bis-(4-hydroxy-3,5-dimethyl-phenyl)-2-oxo-2,3-dihydro-indol-1-ylmethyl]-[1,2,4]oxadiazol-3-yl}-benzoic acid methyl ester] the Ki was no more than 500 nM.
`COc1ccc(-c2noc(CN3C(=O)C(c4cc(C)c(O)c(C)c4)(c4cc(C)c(O)c(C)c4)c4ccccc43)n2)cc1` [Example 142, 3,3-Bis-(4-hydroxy-3,5-dimethyl-phenyl)-1-[3-(4-methoxy-phenyl)-[1,2,4]oxadiazol-5-ylmethyl]-1,3-dihydro-indol-2-one] gave a Ki of no more than 500 nM.
For `COc1nccc(N2C(=O)C(c3cc(C)c(O)c(C)c3)(c3cc(C)c(O)c(C)c3)c3ccccc32)n1` [Example 143, 3,3-Bis-(4-hydroxy-3,5-dimethyl-phenyl)-1-(2-methoxy-pyrimidin-4-yl)-1,3-dihydro-indol-2-one], the Ki was no more than 500 nM.
